Data on two molecules can be found in patent US20230085307A1, “PYRIDAZINONE COMPOUND AND HERBICIDE” (NISSAN CHEMICAL CORPORATION, priority 2019, published 2023).

The subject of test [1] is windgrass. The test can be described thus: Test Example 4: herbicidal effect by soil treatment (Table 19, symbol L). The format is in vivo, windgrass (Apera spica-venti). Conditions: AAH 320 g/ha. In a few lines: (§1)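 In this soil treatment, the formulated compound reached the seeds only through the soil: seeds were buried about 1.5 cm deep in sterilized diluvial soil, then the diluted emulsion was sprayed over the surface. After three weeks at 25° C. to 30° C. in a greenhouse, effects were graded on criteria from an earlier test.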

Test [2] has as its system barnyard grass. The test can be described thus: Test Example 5: herbicidal effect by foliage application, plastic box (Table 20, symbol H). Format: in vivo, barnyard grass (Echinochloa crus-galli). Conditions: foliage application, 320 g/ha. A digest of the protocol: (§2)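 Plants were sown into sterilized diluvial soil under about 1.5 cm cover and kept in a greenhouse at 25° C. to 30° C. Fourteen days on, foliage received an even spray of the diluted emulsion. Herbicidal or crop effect was judged three weeks afterwards.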

The next test has as its system southern crabgrass. As to the kind of experiment: Test Example 5: herbicidal effect by foliage application, plastic box (Table 20, symbol F). The format is in vivo, southern crabgrass (Digitaria ciliaris). Conditions: foliage application, 320 g/ha. A digest of the protocol: as §2
A further test relates to rice flat sedge. As to the kind of experiment: Test Example 3: herbicidal effect by foliage application, Wagner pot (Table 18, symbol E). Conditions: 320 g/ha. Format: in vivo, rice flat sedge (Cyperus iria). In a few lines:
(§3)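 Plants were sown in alluvial soil held under 0.1–0.5 cm standing water and grown 14 days in a greenhouse at 25–30 °C. An emulsifiable formulation, water-diluted to the set dose, was then sprayed onto the foliage, and effects were scored three weeks later using previously defined criteria.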

In the next test the test system is lambsquarters. The test can be described thus: Test Example 4: herbicidal effect by soil treatment (Table 19, symbol O). Format: in vivo, lambsquarters (Chenopodium album). In a few lines: as §1
In a further test the test system is velvetleaf. The test can be described thus: Test Example 5: herbicidal effect by foliage application, plastic box (Table 20, symbol M). The format is in vivo, velvetleaf (Abutilon theophrasti). Conditions: foliage application, 320 g/ha. In a few lines: as §2
Test [3] relates to barnyard grass. As to the kind of experiment: Test Example 3: herbicidal effect by foliage application, Wagner pot (Table 18, symbol H). Format: in vivo, barnyard grass (Echinochloa crus-galli). Conditions: 320 g/ha. In a few lines: as §3
Test [4] relates to windgrass. As to the kind of experiment: Test Example 5: herbicidal effect by foliage application, plastic box (Table 20, symbol L). Conditions: foliage application, 320 g/ha. The format is in vivo, windgrass (Apera spica-venti). A digest of the protocol:
as §2

Another test deals with wild oat. As to the kind of experiment: Test Example 5: herbicidal effect by foliage application, plastic box (Table 20, symbol I). Format: in vivo, wild oat (Avena fatua). Conditions: foliage application, 320 g/ha. A digest of the protocol: as §2
Test [5] has as its system chickweed. As to the kind of experiment: Test Example 4: herbicidal effect by soil treatment (Table 19, symbol P). Format: in vivo, common chickweed (Stellaria media). In a few lines: as §1
The next test relates to Japanese bulrush. The test can be described thus: Test Example 1: herbicidal activity, application before weed generation under submerged conditions (Table 16, symbol B). The format is in vivo, Japanese bulrush (Schoenoplectus juncoides). Conditions: 320 g/ha applied herbicide. A digest of the protocol:
(§4)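 Alluvial soil was flooded to 4 cm depth, weed seeds were sown mixed and 2.5-leaf rice seedlings were transplanted. On sowing day, the compound's emulsion, diluted in water to a set dose, was applied to the water surface. Plants grew at 25–30 °C and were scored 0–5 after three weeks.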

The next test concerns late watergrass. As to the kind of experiment: Test Example 1: herbicidal activity, application before weed generation under submerged conditions (Table 16, symbol A). The format is in vivo, late watergrass (Echinochloa oryzicola). Conditions: 320 g/ha applied herbicide. A digest of the protocol: as §4
In a further test the test system is Chinese sprangletop. The test can be described thus: Test Example 3: herbicidal effect by foliage application, Wagner pot (Table 18, symbol D). Format: in vivo, chinese sprangletop (Leptochloa chinensis). Conditions: 320 g/ha. A digest of the protocol:
as §3

The next test deals with Italian ryegrass. The test can be described thus: Test Example 4: herbicidal effect by soil treatment (Table 19, symbol K). Format: in vivo, Italian ryegrass (Lolium multiflorum). In a few lines:
as §1

The subject of another test is blackgrass. As to the kind of experiment: Test Example 5: herbicidal effect by foliage application, plastic box (Table 20, symbol J). The format is in vivo, blackgrass (Alopecurus myosuroides). Conditions: foliage application, 320 g/ha. In a few lines:
as §2

The next test has as its system persian speedwell. As to the kind of experiment: Test Example 4: herbicidal effect by soil treatment (Table 19, symbol R). The format is in vivo, Persian speedwell (Veronica persica). A digest of the protocol: as §1
The subject of a further test is oval-leafed pondweed. The test can be described thus: Test Example 1: herbicidal activity, application before weed generation under submerged conditions (Table 16, symbol C). Conditions: 320 g/ha applied herbicide. The format is in vivo, oval-leafed pondweed (Monochoria vaginalis). A digest of the protocol:
as §4

The subject of test [6] is chickweed. The test can be described thus: Test Example 5: herbicidal effect by foliage application, plastic box (Table 20, symbol P). Format: in vivo, common chickweed (Stellaria media). Conditions: foliage application, 320 g/ha, three weeks after application. In a few lines:
as §2

The next test deals with redroot pigweed. The test can be described thus: Test Example 5: herbicidal effect by foliage application, plastic box (Table 20, symbol N). Format: in vivo, redroot pigweed (Amaranthus retroflexus). Conditions: foliage application, 320 g/ha, three weeks after application. A digest of the protocol: as §2
Where [7] appears, read: amount of applied herbicide 320 g/ha.

With `C#CC(C)Oc1ccc(-c2sc3ccccc3c2-c2c(O)c(C)nn(C)c2=O)cc1` (racemic) [1-217], in the test with windgrass [1], the “L: windgrass, herbicidal effect rating” value is on record as 0 (Herbicidal rate of 5% or less (almost no effect)). For the same molecule, in the test with barnyard grass [2] (3 weeks after application), the “effect on barnyard grass (H)” value is 5 (Herbicidal rate of 90% or more (almost completely withered)). Further, the “effect on southern crabgrass (F)” value with southern crabgrass (3 weeks after application) is 4 (Herbicidal rate of 70% or more and less than 90%). Further, the “herbicidal effect on E (rice flat sedge), rating 0-5” value in the test with rice flat sedge is 3 (Herbicidal rate of 40% or more and less than 70%). In the test on lambsquarters (AAH 320 g/ha), the “O: lambsquarters, herbicidal effect rating” value is 2 (Herbicidal rate of 20% or more and less than 40%). Moreover, the “effect on velvetleaf (M)” value in the test on velvetleaf (3 weeks after application) is recorded as 5 (Herbicidal rate of 90% or more (almost completely withered)). For the same molecule, the “herbicidal effect on H (barnyard grass), rating 0-5” value in the test on barnyard grass [3] was 5 (Herbicidal rate of 90% or more (almost completely withered)). Besides, the “effect on windgrass (L)” value in the test on windgrass [4] (3 weeks after application) is given as 5 (Herbicidal rate of 90% or more (almost completely withered)). For the same molecule, in the test with wild oat (3 weeks after application), the “effect on wild oat (I)” value was 3 (Herbicidal rate of 40% or more and less than 70%). In the test with chickweed [5] (AAH 320 g/ha), the “P: chickweed, herbicidal effect rating” value is 5 (Herbicidal rate of 90% or more (almost completely withered)). For the same molecule, the “Herbicidal effect on B: Japanese bulrush (grade 0-5)” value in the test with Japanese bulrush is 5 (Herbicidal rate of 90% or more (almost completely withered)). For the same molecule, the “Herbicidal effect on A: late watergrass (grade 0-5)” value in the test on late watergrass is 4 (Herbicidal rate of 70% or more and less than 90%). In the test with Chinese sprangletop, the “herbicidal effect on D (Chinese sprangletop), rating 0-5” value is given as 5 (Herbicidal rate of 90% or more (almost completely withered)). For the same molecule, the “K: Italian ryegrass, herbicidal effect rating” value with Italian ryegrass (AAH 320 g/ha) was 0 (Herbicidal rate of 5% or less (almost no effect)). For the same molecule, the “effect on blackgrass (J)” value in the test on blackgrass (3 weeks after application) was 4 (Herbicidal rate of 70% or more and less than 90%). Besides, the “R: persian speedwell, herbicidal effect rating” value in the test with persian speedwell (AAH 320 g/ha) is 5 (Herbicidal rate of 90% or more (almost completely withered)). For the same molecule, in the test on oval-leafed pondweed, the “Herbicidal effect on C: oval-leafed pondweed (grade 0-5)” value is 3 (Herbicidal rate of 40% or more and less than 70%).
Turning to `Cc1cc(-c2sc3ccccc3c2-c2c(O)c(C)nn(C)c2=O)ccc1F` [1-051], the “herbicidal effect grade, H: barnyard grass” value with barnyard grass [2] (three weeks after application) was 3 (Herbicidal rate of 40% or more and less than 70%). The “herbicidal effect grade, F: southern crabgrass” value in the test on southern crabgrass (three weeks after application) was 3 (Herbicidal rate of 40% or more and less than 70%). For the same molecule, the “herbicidal effect on E (rice flat sedge), rating 0-5” value in the test with rice flat sedge is recorded as 5 (Herbicidal rate of 90% or more (almost completely withered)). Further, the “herbicidal effect rating, O: lambsquarters” value in the test with lambsquarters (setting [7]) was 4 (Herbicidal rate of 70% or more and less than 90%). Besides, the “herbicidal effect grade, M: velvetleaf” value in the test with velvetleaf (three weeks after application) was 5 (Herbicidal rate of 90% or more (almost completely withered)). The “herbicidal effect grade, P: chickweed” value in the test with chickweed [6] is recorded as 5 (Herbicidal rate of 90% or more (almost completely withered)). Further, in the test with barnyard grass [3], the “herbicidal effect on H (barnyard grass), rating 0-5” value is 4 (Herbicidal rate of 70% or more and less than 90%). Further, the “herbicidal effect grade, L: windgrass” value in the test with windgrass [4] (three weeks after application) was 4 (Herbicidal rate of 70% or more and less than 90%). In addition, in the test on wild oat (three weeks after application), the “herbicidal effect grade, I: wild oat” value is 3 (Herbicidal rate of 40% or more and less than 70%). In the test on chickweed [5] (setting [7]), the “herbicidal effect rating, P: chickweed” value is 3 (Herbicidal rate of 40% or more and less than 70%). Moreover, the “Herbicidal effect on B: Japanese bulrush (grade 0-5)” value in the test on Japanese bulrush is reported as 0 (Herbicidal rate of 5% or less (almost no effect)). Moreover, the “herbicidal effect grade, N: redroot pigweed” value in the test with redroot pigweed is 5 (Herbicidal rate of 90% or more (almost completely withered)). For the same molecule, in the test on late watergrass, the “Herbicidal effect on A: late watergrass (grade 0-5)” value was 4 (Herbicidal rate of 70% or more and less than 90%). The “herbicidal effect on D (Chinese sprangletop), rating 0-5” value in the test on Chinese sprangletop is 0 (Herbicidal rate of 5% or less (almost no effect)). Moreover, the “herbicidal effect rating, K: Italian ryegrass” value in the test on Italian ryegrass (setting [7]) was 3 (Herbicidal rate of 40% or more and less than 70%). For the same molecule, the “herbicidal effect grade, J: blackgrass” value in the test with blackgrass (three weeks after application) is 0 (Herbicidal rate of 5% or less (almost no effect)). For the same molecule, in the test on persian speedwell (setting [7]), the “herbicidal effect rating, R: persian speedwell” value was 4 (Herbicidal rate of 70% or more and less than 90%). Moreover, the “Herbicidal effect on C: oval-leafed pondweed (grade 0-5)” value in the test on oval-leafed pondweed is recorded as 0 (Herbicidal rate of 5% or less (almost no effect)).
